Results reported in patent publication US12173018B2, “Penicillin-binding protein inhibitors” (priority 2018, dated 2024).
In brackets after ≈: the same amount, converted by molar mass. Read-outs that look alike come from different tables or passages of the source.

Tests used:
E. coli PBP1b = E. coli PBP1b (Escherichia coli (strain K12), UniProt P02919); assay: Radioligand competition binding assay with 14C-labeled boronic acid probe, PBP1b
Source text: To determine the ability of boronic acid-based test PBP inhibitors to bind Penicillin Binding Proteins (PBPs), a radio-labelled boronic acid PBP inhibitor
[drawing 751] was used in competition binding assays to determine boronic acid PBP inhibitor binding to PBP1a or PBP1b from Escherichia coli. PBP1a and PBP1b were purified as described previously (Bertsche, U.; et al., J. Biol. Chem. 2005, 280 (45), 38096-38101; Born, P.; et al., J. Biol. Chem. 2006. 281 (37), 26985-26993). To establish assay conditions for competition binding, an enzyme titration/saturation binding experiment was performed. Saturation binding was performed in a buffer comprised of 20 mM Tris (pH 7.5), 500 mM NaCl and 0.1% (v/v) TritonX-100, with PBP1a/PBP1b at a final concentration of 0.1 μM and Compound A at final concentrations ranging from 0-100 μM. Mixtures were incubated for 60 minutes, then applied to Zeba Spin Desalting columns or plates (ThermoFisher Scientific) and centrifuged at 1000-1500×g for 2 minutes. The flow through, containing PBP bound with Compound A, was recovered and 100 μL mixed with 5 mL of UltimaGold liquid scintillation cocktail (Perkin Elmer), and the radioactivity counted using a Beckman Coulter LS 6500 Multipurpose scintillation counter. PBP binding of Compound A approached saturation at 20 μM of ^14C-labeled probe. The competition binding assay was validated using the beta-lactam ampicillin, with Compound A at a final concentration of 20 μM, PBP1a/PBP1b at a final concentration of 0.1 μM. PBP1a/PBP1b was incubated with ampicillin in a 96-well microplate for 60 minutes, then Compound A was added and the mixtures incubated for an additional 60 minutes. The mixtures were then applied to Zeba Spin desalting plates and centrifuged at 1000×g for 2 minutes. The flow through was recovered and 100 μl mixed with 5 ml of UltimaGold liquid scintillation cocktail and the radioactivity counted. […] Binding assays with boronic acid PBP inhibitors were performed in an identical fashion. The potency of boronic acid PBP inhibitors was reported as the EC50 value.

E. coli PBP3 = E. coli PBP3 (Escherichia coli (strain K12), UniProt P0AD68); assay: E. coli PBP3 Bocillin-FL fluorescence polarization competition binding assay
Summary of the method: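 Purified PBP (1.5 μM final) was combined with test compound (0–1000 μM) and Bocillin-FL (fluorescent penicillin V, 0.1 μM final) in 50 mM Hepes pH 8.0, 300 mM NaCl, 5% glycerol.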

N. gonorrhoeae FA19 = assay: Liquid broth MIC, N. gonorrhoeae FA19; type: cell-based; settings: Neisseria gonorrhoeae; N. gonorrhoeae FA19, liquid broth; read-out: Minimum Inhibitory Concentration, N. gonorrhoeae FA19
Procedure: (§1) Additional antibacterial testing of the series was performed in wild-type reference strains of N. gonorrhoeae (ATCC 49226, FA1090, WHO F and FA19). Liquid broth-based assays were used for antibacterial testing of PBP inhibitors in Neisseria gonorrhoeae. Briefly, cryo-preserved bacterial cultures of clinical strains are streaked for isolation on GC Base agar (BD #228950 at 36 g/L autoclaved at 121° C. for 20 minutes to sterilize) with 1% Kellogg's supplement (40 g glucose, 0.5 g glutamine, 0.05 g ferric nitrate and 2 mg cocarboxylase per 100 mL deionized water filter sterilized through 0.2 μm syringe filters). Following incubation at 36° C. and 5% CO2 to allow growth of colonies, strains are aseptically sub-cultured from original agar plate onto 3 agar plates per strain 24 hours before inoculum preparation. 2-fold serial dilutions of test compounds are conducted in a 96 well plate with a final volume of 150 μL per well at 4/3-fold the final desired concentration. For preparation of assay inoculum, a direct suspension is prepared by aseptically swabbing all colonies from sub-cultured agar plates into culture tubes containing 2 mL of fresh GC broth with […]. After the dilution plates are set up, direct suspensions are then diluted in a cuvette containing GC broth (15 g proteose peptone 43, 1 g corn starch, 4 g dipotassium phosphate, 1 g monopotassium phosphate and 5 g sodium chloride per liter of deionized water are mixed on a stir plate for 20 minutes, pH adjusted to 7.2+/−0.2 pH units with 1 N HCl, centrifuged at 10,000×g for 20 minutes to pellet undissolved corn starch and then autoclaved at 121° C. for 20 minutes to sterilize) and the optical density is measured at 600 nm. Inocula are diluted such that 50 μL of this culture in […] results in a starting bacterial concentration of 5×10^5 CFU/mL when added to the dilution plates. The plates are incubated 40-42 hours at 36° C. and 5% CO2. The MIC is read visually as the lowest concentration well with no bacterial growth.

[1] = tested on: N. gonorrhoeae ATCC 49226; assay: Liquid broth MIC, N. gonorrhoeae ATCC 49226; type: cell-based; settings: Neisseria gonorrhoeae, ATCC49226; N. gonorrhoeae ATCC 49226, liquid broth; read-out: Minimum Inhibitory Concentration, N. gonorrhoeae ATCC 49226
Procedure: as §1

[2] = tested on: engineered strain of Escherichia coli harboring CTX-M15; assay: microbe, parasite or virus in culture; type: cell-based; settings: Escherichia coli, read-out: Microbiological Activity (MIC in mg/L), E. coli DH5α/pLBII-CTX-M15, engineered strain producing CTX-M15
Procedure: Briefly, cryo-preserved bacterial cultures of challenge strains are streaked for isolation on appropriate agar medium, in this case Mueller Hinton II agar. Following incubation to allow growth of the colonies, plates are sealed with parafilm and stored refrigerated for up to two weeks. For preparation of assay inoculum and to ensure low variability, at least 5 colonies are picked from the agar plates with an inoculating loop and aseptically transferred to a culture tube containing 3 mL of Mueller-Hinton Broth (supplemented with divalent cations to required levels based on Manufacturers' certification). The broth culture is grown for 3-5 hours at 37° C. with shaking at 200 rpm. Meanwhile, 2-fold serial dilutions of test compounds are conducted in a 96 well plate with a final volume of 75 μL per well at 2-fold the final desired concentration. After the dilution plates are set up the growing cultures are then diluted in a cuvette containing MH II broth and the optical density is measured at 600 nm. The Inoculum is diluted such that 75 μL of this culture in Mueller-Hinton Broth results in a starting bacterial concentration of 5×10^5 CFU/mL when added to the dilution plates. The plates are incubated for 16-20 hours at 37° C. The MIC values are read visually as the lowest concentration well with no bacterial growth.
To determine if test compounds were affected by CTX-M15, the most abundant extended spectrum […] in clinical settings worldwide, the inhibition of the growth of an engineered strain of Escherichia coli harboring CTX-M15 was tested. This strain was constructed by cloning the gene encoding CTX-M15 into the NdeI and BamHI restriction endonuclease sites of plasmid pLBII, placing the gene(s) under the control of the Lac promoter. The constructed expression plasmid for CTX-M15 was used to transform competent E. coli DH5α cells to make the engineered strain, including an empty pLBII vector control strain. The classic cell based broth microdilution MIC assay was employed as described above with the addition of control antibiotics, known to be degraded by β-lactamases (Ceftazidime, piperacillin and piperacillin+tazobactam).

N. gonorrhoeae FA1090 = assay: Liquid broth MIC, N. gonorrhoeae FA1090; type: cell-based; settings: Neisseria gonorrhoeae; N. gonorrhoeae FA1090, liquid broth; read-out: Minimum Inhibitory Concentration, N. gonorrhoeae FA1090
Procedure: as §1

N. gonorrhoeae WHO F = assay: Liquid broth MIC, N. gonorrhoeae WHO F; type: cell-based; settings: Neisseria gonorrhoeae; N. gonorrhoeae WHO F, liquid broth; read-out: Minimum Inhibitory Concentration, N. gonorrhoeae WHO F
Procedure: as §1

[3] = fluorescence polarization competition binding with Bocillin-FL, read-out: E. coli K12 PBP3 Potency

E. coli PBP1b, sequence (P02919 whole entry): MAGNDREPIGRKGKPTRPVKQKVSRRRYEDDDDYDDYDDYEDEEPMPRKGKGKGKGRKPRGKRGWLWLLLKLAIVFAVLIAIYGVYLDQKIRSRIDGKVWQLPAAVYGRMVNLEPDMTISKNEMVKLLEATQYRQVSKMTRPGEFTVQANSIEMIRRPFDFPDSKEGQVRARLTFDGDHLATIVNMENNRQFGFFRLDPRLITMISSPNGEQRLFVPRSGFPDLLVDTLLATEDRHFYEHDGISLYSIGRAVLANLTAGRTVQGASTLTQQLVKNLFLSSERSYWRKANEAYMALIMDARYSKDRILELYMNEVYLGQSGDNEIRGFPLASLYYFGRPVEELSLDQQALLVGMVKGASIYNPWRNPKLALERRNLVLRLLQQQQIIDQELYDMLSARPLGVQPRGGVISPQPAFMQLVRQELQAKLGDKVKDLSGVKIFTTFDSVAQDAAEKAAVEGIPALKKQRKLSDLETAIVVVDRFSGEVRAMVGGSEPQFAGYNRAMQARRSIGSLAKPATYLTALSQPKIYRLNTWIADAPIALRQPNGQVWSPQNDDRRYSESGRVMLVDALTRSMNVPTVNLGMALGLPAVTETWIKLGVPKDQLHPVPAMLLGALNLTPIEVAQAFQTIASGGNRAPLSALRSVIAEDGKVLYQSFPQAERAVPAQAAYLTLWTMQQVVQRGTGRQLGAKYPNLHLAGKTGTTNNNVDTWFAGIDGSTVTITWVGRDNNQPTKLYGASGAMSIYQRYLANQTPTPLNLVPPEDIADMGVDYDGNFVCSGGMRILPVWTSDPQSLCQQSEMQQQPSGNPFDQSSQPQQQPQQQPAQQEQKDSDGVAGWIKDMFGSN
E. coli PBP3, sequence (P0AD68 whole entry): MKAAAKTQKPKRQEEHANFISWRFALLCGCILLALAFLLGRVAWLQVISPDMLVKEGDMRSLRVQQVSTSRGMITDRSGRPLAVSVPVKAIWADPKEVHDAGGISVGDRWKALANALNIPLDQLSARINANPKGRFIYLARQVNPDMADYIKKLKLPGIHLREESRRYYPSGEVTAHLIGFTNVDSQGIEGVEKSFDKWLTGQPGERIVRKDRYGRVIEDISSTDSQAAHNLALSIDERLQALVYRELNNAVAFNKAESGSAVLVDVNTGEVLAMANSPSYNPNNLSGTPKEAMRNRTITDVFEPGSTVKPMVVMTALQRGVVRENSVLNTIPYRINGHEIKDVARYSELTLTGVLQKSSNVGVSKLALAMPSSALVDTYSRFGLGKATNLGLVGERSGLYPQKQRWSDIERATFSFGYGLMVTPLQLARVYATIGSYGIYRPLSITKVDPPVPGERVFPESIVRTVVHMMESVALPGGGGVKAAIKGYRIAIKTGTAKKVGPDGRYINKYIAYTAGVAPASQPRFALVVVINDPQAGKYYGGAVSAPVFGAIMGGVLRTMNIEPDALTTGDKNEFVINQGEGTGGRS

SMILES: CCN1CCN(C(=O)NC(C(=O)N[C@H]2Cc3cccc(C(=O)O)c3OB2O)c2ccccn2)C(=O)C1=O (stereo partly drawn) [Example 56, (3R)-3-(2-(4-ethyl-2,3-dioxopiperazine-1-carboxamido)-2-(pyridin-2-yl)acetamido)-2-hydroxy-3,4-dihydro-2H-benzo[e][1,2]oxaborinine-8-carboxylic acid]
- EC50 (E. coli PBP1b): > 100 µM

SMILES: CCN1CCN(C(=O)NC(C(=O)N[C@H]2Cc3cccc(C(=O)O)c3OB2O)C2CCS(=O)(=O)C2)C(=O)C1=O (stereo partly drawn) [Example 123, (3R)-3-(2-(1,1-dioxidotetrahydrothiophen-3-yl)-2-(4-ethyl-2,3-dioxopiperazine-1-carboxamido)acetamido)-2-hydroxy-3,4-dihydro-2H-benzo[e][1,2]oxaborinine-8-carboxylic acid]
- EC50 (E. coli PBP1b): > 100 µM
- EC50 (E. coli PBP3; [3]): > 500 µM

SMILES: CCN1CCN(C(=O)NC(C(=O)N[C@H]2Cc3cccc(C(=O)O)c3OB2O)c2ccc(-c3nnn[nH]3)cc2)C(=O)C1=O (some centres unmarked) [Example 93]
- MIC (N. gonorrhoeae FA19): 4 to 8 µg/mL (≈ 6.94 to 13.9 µM)
- MIC [1]: 4 to 8 µg/mL (≈ 6.94 to 13.9 µM)
- MIC [2]: 32 to 64 mg/L (≈ 55.5 to 111 µM)
- EC50 (E. coli PBP3; [3]): < 30 µM
- MIC (N. gonorrhoeae FA1090): 0.25 to 0.5 µg/mL (≈ 0.434 to 0.868 µM)
- MIC (N. gonorrhoeae WHO F): < 0.125 µg/mL

SMILES: CCN1CCN(C(=O)NC(C(=O)N[C@H]2Cc3cccc(C(=O)O)c3OB2O)C(Cl)CCCO)C(=O)C1=O (stereo partly drawn) [Example 129, (3R)-3-(3-chloro-2-(4-ethyl-2,3-dioxopiperazine-1-carboxamido)-6-hydroxyhexanamido)-2-hydroxy-3,4-dihydro-2H-benzo[e][1,2]oxaborinine-8-carboxylic acid]
- EC50 (E. coli PBP1b): > 100 µM
- EC50 (E. coli PBP3; [3]): > 500 µM

SMILES: CCN1CCN(C(=O)NC(C(=O)N[C@H]2Cc3cccc(C(=O)O)c3OB2O)C(O)c2ccc(O)c(O)c2Cl)C(=O)C1=O (stereo partly drawn) [Example 47, (3R)-3-(3-(2-chloro-3,4-dihydroxyphenyl)-2-(4-ethyl-2,3-dioxopiperazine-1-carboxamido)-3-hydroxypropanamido)-2-hydroxy-3,4-dihydro-2H-benzo[e][1,2]oxaborinine-8-carboxylic acid]
- EC50 (E. coli PBP1b): 10 to 100 µM
- EC50 (E. coli PBP3; [3]): > 500 µM

SMILES: O=C(O)c1cccc2c1OB(O)[C@@H](NC(=O)C(NC(=O)N1CCNC1=O)c1ccc(O)c(O)c1Cl)C2 (stereo partly drawn) [Example 52, (3R)-3-(2-(2-chloro-3,4-dihydroxyphenyl)-2-(2-oxoimidazolidine-1-carboxamido)acetamido)-2-hydroxy-3,4-dihydro-2H-benzo[e][1,2]oxaborinine-8-carboxylic acid]
- MIC (N. gonorrhoeae FA19): > 64 µg/mL
- MIC [1]: 0.25 to 0.5 µg/mL (≈ 0.482 to 0.964 µM)
- MIC [2]: 128 to 256 mg/L (≈ 247 to 494 µM)
- MIC (N. gonorrhoeae FA1090): < 0.125 µg/mL
- MIC (N. gonorrhoeae WHO F): < 0.125 µg/mL

SMILES: CCN1CCN(C(=O)NC(C(=O)N[C@H]2Cc3cccc(C(=O)O)c3OB2O)C(Cl)CCCO)C(=O)C1=O (stereo partly drawn) [Example 130, (3R)-3-(3-chloro-2-(4-ethyl-2,3-dioxopiperazine-1-carboxamido)-6-hydroxyhexanamido)-2-hydroxy-3,4-dihydro-2H-benzo[e][1,2]oxaborinine-8-carboxylic acid]
- EC50 (E. coli PBP1b; read-out: E. coli K12 PBP1b EC50, competition binding with 14C-labeled boronic acid probe): > 100 µM

SMILES: CCN1CCN(C(=O)NC(C(=O)N[C@H]2Cc3cccc(C(=O)O)c3OB2O)c2ccc(N)cn2)C(=O)C1=O (stereo partly drawn) [Example 132, (3R)-3-(2-(5-aminopyridin-2-yl)-2-(4-ethyl-2,3-dioxopiperazine-1-carboxamido)acetamido)-2-hydroxy-3,4-dihydro-2H-benzo[e][1,2]oxaborinine-8-carboxylic acid]
- EC50 (E. coli PBP1b): 10 to 100 µM
- EC50 (E. coli PBP3; [3]): < 30 µM

SMILES: CCN1CCN(C(=O)NC(CC(=O)N[C@H]2Cc3cccc(C(=O)O)c3OB2O)c2cc(O)c(O)c(Cl)c2)C(=O)C1=O (stereo partly drawn) [Example 43, (3R)-3-(3-(3-chloro-4,5-dihydroxyphenyl)-3-(4-ethyl-2,3-dioxopiperazine-1-carboxamido)propanamido)-2-hydroxy-3,4-dihydro-2H-benzo[e][1,2]oxaborinine-8-carboxylic acid]
- EC50 (E. coli PBP1b): 10 to 100 µM
- EC50 (E. coli PBP3): 30 to 500 µM

SMILES: CCN1CCN(C(=O)NC(C(=O)N[C@H]2Cc3cccc(C(=O)O)c3OB2O)C2CN(S(N)(=O)=O)C2)C(=O)C1=O (stereo partly drawn) [Example 78, (3R)-3-(2-(4-ethyl-2,3-dioxopiperazine-1-carboxamido)-2-(1-sulfamoylazetidin-3-yl)acetamido)-2-hydroxy-3,4-dihydro-2H-benzo[e][1,2]oxaborinine-8-carboxylic acid]
- EC50 (E. coli PBP1b): > 100 µM
- MIC [2]: 128 to 256 mg/L (≈ 226 to 452 µM)

SMILES: CCN1CCN(C(=O)NC(C(=O)N[C@H]2Cc3cccc(C(=O)O)c3OB2O)c2ccc(C)cn2)C(=O)C1=O (stereo partly drawn) [Example 127, (3R)-3-(2-(4-ethyl-2,3-dioxopiperazine-1-carboxamido)-2-(5-methylpyridin-2-yl)acetamido)-2-hydroxy-3,4-dihydro-2H-benzo[e][1,2]oxaborinine-8-carboxylic acid]
- EC50 (E. coli PBP1b): > 100 µM
- EC50 (E. coli PBP3; [3]): > 500 µM

SMILES: CCN1CCN(C(=O)NC(C(=O)N[C@H]2Cc3cccc(C(=O)O)c3OB2O)C(O)c2cccc(O)c2O)C(=O)C1=O (stereo partly drawn) [Example 48, (3R)-3-(3-(2,3-dihydroxyphenyl)-2-(4-ethyl-2,3-dioxopiperazine-1-carboxamido)-3-hydroxypropanamido)-2-hydroxy-3,4-dihydro-2H-benzo[e][1,2]oxaborinine-8-carboxylic acid]
- EC50 (E. coli PBP1b): < 10 µM
- EC50 (E. coli PBP3; [3]): > 500 µM
